In paper PMC5699943 (Biotechnology and bioengineering, 2017):

How the values were obtained:
Test in all cases: formaldehyde-responsive FrmR GFP reporter in E. coli cells
Type in all cases: cell-based
Settings in all cases: whole cells, 0-500 mM methanol, 2 h, 37°C, NAD-dependent
[1] = target: T1, mdh2 from Cupriavidus necator (Cupriavidus necator, UniProt F8GNE5)
T1 sequence (F8GNE5 1-390): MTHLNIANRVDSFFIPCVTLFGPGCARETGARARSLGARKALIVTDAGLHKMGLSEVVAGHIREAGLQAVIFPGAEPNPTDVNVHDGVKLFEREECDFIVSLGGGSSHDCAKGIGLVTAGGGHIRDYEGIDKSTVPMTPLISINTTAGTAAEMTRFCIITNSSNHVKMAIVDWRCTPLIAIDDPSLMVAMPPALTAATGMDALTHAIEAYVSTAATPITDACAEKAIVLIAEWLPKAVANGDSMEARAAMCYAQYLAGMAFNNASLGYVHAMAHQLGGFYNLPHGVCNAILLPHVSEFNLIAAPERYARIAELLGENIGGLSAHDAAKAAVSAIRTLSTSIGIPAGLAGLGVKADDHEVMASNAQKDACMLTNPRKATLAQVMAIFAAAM

AdhA from C. glutamicum = target: T2, AdhA from C. glutamicum (Corynebacterium glutamicum, UniProt Q8NLX9)
T2 sequence (Q8NLX9 1-345): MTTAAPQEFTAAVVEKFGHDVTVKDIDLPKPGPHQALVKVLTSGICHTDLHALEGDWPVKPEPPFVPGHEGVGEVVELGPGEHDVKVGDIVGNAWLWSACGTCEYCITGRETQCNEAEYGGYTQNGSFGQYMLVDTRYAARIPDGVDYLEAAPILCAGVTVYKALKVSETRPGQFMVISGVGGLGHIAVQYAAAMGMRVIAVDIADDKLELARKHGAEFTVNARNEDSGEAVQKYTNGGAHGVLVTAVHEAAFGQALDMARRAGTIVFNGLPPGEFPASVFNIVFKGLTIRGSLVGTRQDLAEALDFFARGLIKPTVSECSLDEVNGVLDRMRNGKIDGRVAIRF

[2] = target: T3, mdh from Geobacillus stearothermophilus (Geobacillus stearothermophilus, UniProt P42327)
T3 sequence (P42327 1-339): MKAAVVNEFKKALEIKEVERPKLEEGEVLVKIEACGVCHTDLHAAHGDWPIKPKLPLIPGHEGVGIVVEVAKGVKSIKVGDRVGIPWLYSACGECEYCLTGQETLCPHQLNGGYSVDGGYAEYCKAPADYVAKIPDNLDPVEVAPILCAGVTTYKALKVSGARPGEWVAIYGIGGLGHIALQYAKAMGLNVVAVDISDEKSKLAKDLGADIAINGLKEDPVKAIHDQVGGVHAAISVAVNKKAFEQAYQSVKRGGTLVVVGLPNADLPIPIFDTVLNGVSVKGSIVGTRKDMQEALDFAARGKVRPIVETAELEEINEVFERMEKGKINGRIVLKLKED

CO [methanol]
formaldehyde-responsive FrmR GFP reporter in E. coli cells [1]: After two hours, signal was detected for all variants except Mdh1
formaldehyde-responsive FrmR GFP reporter in E. coli cells (AdhA from C. glutamicum): After two hours, signal was detected for all variants except Mdh1
formaldehyde-responsive FrmR GFP reporter in E. coli cells [2]: After two hours, signal was detected for all variants except Mdh1
